According to US20230183239A1, “ECTONUCLEOTIDE PYROPHOSPHATASE-PHOSPHODIESTERASE 1 (ENPP-1) INHIBITORS AND USES THEREOF” (AbbVie Inc., priority 2017, published 2023):

Columns and labels:
Type in all cases: biochemical
ENPP1 [1] = target: T1, ENPP1 (Homo sapiens, UniProt P22413); assay: Substrate selectivity ratio, inhibition of cGAMP hydrolysis versus ATP hydrolysis; details: ratio Ki AMP-pNP / Ki cGAMP
T1 sequence (P22413 1-925): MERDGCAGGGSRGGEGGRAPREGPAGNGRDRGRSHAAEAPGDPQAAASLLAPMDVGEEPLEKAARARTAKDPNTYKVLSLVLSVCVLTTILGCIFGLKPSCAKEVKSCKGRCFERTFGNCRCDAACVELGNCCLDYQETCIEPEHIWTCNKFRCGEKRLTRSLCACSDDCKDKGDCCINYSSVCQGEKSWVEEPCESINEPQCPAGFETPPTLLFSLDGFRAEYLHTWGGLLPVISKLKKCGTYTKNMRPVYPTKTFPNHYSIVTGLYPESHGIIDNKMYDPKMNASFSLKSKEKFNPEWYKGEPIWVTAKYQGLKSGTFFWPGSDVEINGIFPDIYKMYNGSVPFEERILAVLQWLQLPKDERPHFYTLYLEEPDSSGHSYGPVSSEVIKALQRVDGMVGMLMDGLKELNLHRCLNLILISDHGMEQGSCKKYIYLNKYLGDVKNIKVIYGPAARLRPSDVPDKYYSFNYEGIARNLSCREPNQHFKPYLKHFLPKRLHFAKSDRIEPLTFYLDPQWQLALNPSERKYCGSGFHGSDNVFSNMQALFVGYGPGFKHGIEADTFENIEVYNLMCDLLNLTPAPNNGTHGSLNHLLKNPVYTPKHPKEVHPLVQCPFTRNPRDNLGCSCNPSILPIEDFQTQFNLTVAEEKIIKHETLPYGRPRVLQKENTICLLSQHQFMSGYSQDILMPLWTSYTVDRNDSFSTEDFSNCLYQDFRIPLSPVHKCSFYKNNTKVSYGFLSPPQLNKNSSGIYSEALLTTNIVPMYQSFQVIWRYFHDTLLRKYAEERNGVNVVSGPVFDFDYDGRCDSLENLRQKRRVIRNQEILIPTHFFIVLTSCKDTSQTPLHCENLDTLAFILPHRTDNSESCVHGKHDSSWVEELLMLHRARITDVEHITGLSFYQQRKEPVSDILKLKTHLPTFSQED
Description: The selectivity ratios for inhibition of cGAMP hydrolysis versus ATP hydrolysis were then calculated as follows: […]

ENPP1 [2] = target: T1, ENPP1; assay: ENPP1 enzyme assay with AMP-pNP substrate (hydrolysis of ATP analog); details: AMP-pNP substrate (ATP analog); Ki from IC50 by Cheng-Prusoff; read-out: ENPP1 Inhibition _AMP-pNP: Ki
Summary of the method: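 Reactions ran 20 min at 37 °C, pH 8.5 Tris buffer with NaCl, CaCl2, ZnCl2, using 300 µM AMP-pNP and 60 ng/well recombinant human ENPP1; inhibitor range 10 µM–30 pM, duplicates.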

ENPP1 [3] = target: T1, ENPP1; assay: Indirect quantitation of 2',3'-cGAMP hydrolysis (AMP-Glo Assay kit); details: cGAMP substrate; Ki from IC50 by Cheng-Prusoff; read-out: ENPP1 Inhibition -cGAMP: Ki

Structure (SMILES) | Substrate Selectivity: Ki_AMP-pNP/Ki_cGAMP (ENPP1 [1]) | Ki (ENPP1 [2]) | Ki (ENPP1 [3])
COc1ccc2c(-c3ccc(CNS(N)(=O)=O)c(F)c3)ccnc2c1 [Example 62, N-(2-fluoro-4-(7-methoxyquinolin-4-yl)benzyl)sulfamide] | 16.1 | < 100 nM | < 100 nM
COc1cc2nccc(N3CCC(CN(C4CC4)S(N)(=O)=O)CC3)c2cc1OC [Example 212, N-cyclopropyl-N-((1-(6,7-dimethoxyquinolin-4-yl)piperidin-4-yl)methyl)sulfamide] | > 46.1 | > 1000 nM | < 100 nM
COc1cc2ncnc(NCc3ccc(C(=O)NO)cc3)c2cc1OC [Example 196, 4-(((6,7-dimethoxyquinazolin-4-yl)amino)methyl)-N-hydroxybenzamide] | > 13.4 | > 1000 nM | < 100 nM
COc1cc2nccc(Oc3ccc4c(c3)CNS(=O)(=O)N4)c2cc1OC [Example 263, 6-((6,7-dimethoxyquinolin-4-yl)oxy)-3,4-dihydro-1H-benzo[c][1,2,6]thiadiazine 2,2-dioxide] | >61.9 | > 1000 nM | 100 to 1000 nM
COc1ccc2c(-c3ccc4c(c3)CN(S(N)(=O)=O)CC4)ccnc2c1 [Example 305, 7-(7-methoxyquinolin-4-yl)-3,4-dihydroisoquinoline-2(1H)-sulfonamide] | >13.0 | 100 to 1000 nM | < 100 nM
COc1ccc2ncnc(N3CCC4(CC3)CCN(S(N)(=O)=O)C4)c2c1 [Example 70, 8-(6-methoxyquinazolin-4-yl)-2,8-diazaspiro [4.5] decane-2-sulfonamide] | 15.5 | < 100 nM | < 100 nM
COc1cc2ncc(-c3ccc4c(c3)CN(S(N)(=O)=O)CC4)c(Cl)c2cc1OC [Example 260, 7-(4-chloro-6,7-dimethoxyquinolin-3-yl)-3,4-dihydroisoquinoline-2(1H)-sulfonamide] | 21.5 | < 100 nM | < 100 nM
COc1cc2ncn(-c3ccc(CNS(N)(=O)=O)cc3)c2cc1OC [Example 120, N-(4-(5,6-dimethoxy-1H-benzo[d]imidazol-1-yl)benzyl)sulfamide] | 54.5 | > 1000 nM | < 100 nM
NS(=O)(=O)N1CCc2ccc(-c3ccnc4cc(F)ccc34)cc2C1 [Example 311, 7-(7-fluoroquinolin-4-yl)-3,4-dihydroisoquinoline-2(1H)-sulfonamide] | >133 | > 1000 nM | < 100 nM
COc1cc2ncnc(N3CCC(CCN)CC3)c2cc1OC [Example 334, 2-(1-(6,7-dimethoxyquinazolin-4-yl)piperidin-4-yl)ethan-1-amine] | >414 | > 1000 nM | < 100 nM
COc1cc2ncnc(N3CCC(CNS(N)(=O)=O)CC3)c2cc1OC [Example 339, N-((1-(6,7-dimethoxyquinazolin-4-yl)piperidin-4-yl)methyl)sulfamide] | 38.5 | 100 to 1000 nM | < 100 nM
COc1cc2ncnc(N3CCC(CCS(N)(=O)=O)CC3)c2cc1OC [Example 164, 2-(1-(6,7-dimethoxyquinazolin-4-yl)piperidin-4-yl)ethane-1-sulfonamide] | 14.8 | < 100 nM | < 100 nM

Further lines, results first:

Substrate Selectivity: Ki_AMP-pNP/Ki_cGAMP (ENPP1 [1]) | Ki (ENPP1 [2]) | Ki (ENPP1 [3]) | Structure (SMILES)
35.7 | > 1000 nM | < 100 nM | COc1cc2nccc(-c3ccc(CNS(N)(=O)=O)nc3)c2cc1OC [Example 314, N-((5-(6,7-dimethoxyquinolin-4-yl)pyridin-2-yl)methyl)sulfamide]
>34.0 | > 1000 nM | < 100 nM | NS(=O)(=O)c1ccc(CNc2ncnc3cc(F)ccc23)cc1 [Example 304, 4-(((7-fluoroquinazolin-4-yl)amino)methyl)benzenesulfonamide]
> 19.9 | 100 to 1000 nM | < 100 nM | COc1cc2nccc(Oc3ccc(NS(N)(=O)=O)cc3F)c2cc1OC [Example 201, N-(4-((6,7-dimethoxyquinolin-4-yl)oxy)-3-fluorophenyl)sulfamide]
>20 | > 1000 nM | 100 to 1000 nM | COc1ccc2c(-c3ccc(NS(N)(=O)=O)cc3)ccnc2c1 [Example 396, N-(4-(7-methoxyquinolin-4-yl)phenyl)sulfamide]
30 | < 100 nM | < 100 nM | COc1ccc2c(NCc3ccc(NS(N)(=O)=O)cc3)ccnc2n1 [Example 417, N-(4-(((7-methoxy-1,8-naphthyridin-4-yl)amino)methyl)phenyl)sulfamide]
>97.7 | > 1000 nM | 100 to 1000 nM | COc1cc2c(-c3ccc(CNS(N)(=O)=O)cc3)c(C#N)cnc2cn1 [Example 235, N-(4-(3-cyano-6-methoxy-1,7-naphthyridin-4-yl)benzyl)sulfamide]
54 | 100 to 1000 nM | < 100 nM | COc1ccc2c(-c3ccc(CNS(N)(=O)=O)nc3)ccnc2c1 [Example 354, N-((5-(7-methoxyquinolin-4-yl)pyridin-2-yl)methyl)sulfamide]
109 | 100 to 1000 nM | < 100 nM | COc1cc2ncnc(NC(C)c3ccc(NS(N)(=O)=O)cc3)c2cc1F (stereo not drawn) [Example 236, N-(4-(1-((6-fluoro-7-methoxyquinazolin-4-yl)amino)ethyl)phenyl)sulfamide]
22.4 | 100 to 1000 nM | < 100 nM | COc1ccc2ncnc(NCc3ccc(S(N)(=O)=O)cc3)c2c1 [Example 306, 4-(((6-methoxyquinazolin-4-yl)amino)methyl)benzenesulfonamide]
48.4 | < 100 nM | < 100 nM | COc1cc2nccc(-c3ccc(CNS(N)(=O)=O)cc3)c2cc1OC [Example 225, N-(4-(6,7-dimethoxyquinolin-4-yl)benzyl)sulfamide]
>82.4 | > 1000 nM | 100 to 1000 nM | NS(=O)(=O)Nc1ccc(Nc2ncnc3ncccc23)cc1 [Example 242, N-(4-(pyrido[2,3-d]pyrimidin-4-ylamino)phenyl)sulfamide]
24.7 | 100 to 1000 nM | < 100 nM | COc1cc2ncnc(NCc3ccc(S(N)(=O)=O)cc3)c2cc1OC [Example 182, 4-(((6,7-dimethoxyquinazolin-4-yl)amino)methyl)benzene sulfonamide]
>14 | > 1000 nM | 100 to 1000 nM | COc1ccc2c(Oc3ccc(NS(N)(=O)=O)cc3)c(C(F)(F)F)cnc2c1 [Example 407, N-(4-((7-methoxy-3-(trifluoromethyl)quinolin-4-yl)oxy)phenyl)sulfamide]
>38.8 | > 1000 nM | < 100 nM | COc1cc2nccc(-n3ccc4cc(NS(N)(=O)=O)ccc43)c2cc1OC [Example 313, N-(1-(6,7-dimethoxyquinolin-4-yl)-1H-indol-5-yl)sulfamide]
